Measurements as given in PubChem BioAssay AID1963970 (Molecular Pharmacology Branch, DTP, NCI, 2024).

Tested on: 931267-113-T-J1-PDC multicell spheroid viability
Assay: Anticancer human tumor 931267-113-T-J1-PDC patient-derived colon adenocarcinoma cell line growth inhibition [PI3K]
Settings: for IC50: curve of first compound; for viability, T/C: stronger effect = lower value
Summary of the method: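 Spheroid viability read-out. Co-cultures contained the tumor line plus HUVEC and human MSCs. Each agent was paired with a PI3K inhibitor (inavolisib, alpelisib, duvelisib, copanlisib) across half-log dilutions starting at clinical Cmax, or at 10 microM when Cmax was unknown.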

[1] = second compound 0.0316 µM, first compound 0.0316 µM
[2] = second compound 0.0316 µM, first compound 0.1 µM
[3] = second compound 0.0316 µM, first compound 0.316 µM
[4] = second compound 0.0316 µM, first compound 1 µM
[5] = second compound 0.0316 µM, first compound 3.16 µM
[6] = second compound 0.0316 µM, first compound 10 µM
[7] = second compound 0.1 µM, first compound 0.0316 µM
[8] = second compound 0.1 µM, first compound 0.1 µM
[9] = second compound 0.1 µM, first compound 0.316 µM
[10] = second compound 0.1 µM, first compound 1 µM
[11] = second compound 0.1 µM, first compound 3.16 µM
[12] = second compound 0.1 µM, first compound 10 µM
[13] = second compound 0.316 µM, first compound 0.0316 µM
[14] = second compound 0.316 µM, first compound 0.1 µM
[15] = second compound 0.316 µM, first compound 0.316 µM
[16] = second compound 0.316 µM, first compound 1 µM
[17] = second compound 0.316 µM, first compound 3.16 µM
[18] = second compound 0.316 µM, first compound 10 µM
[19] = second compound 1 µM, first compound 0.0316 µM
[20] = second compound 1 µM, first compound 0.1 µM
[21] = second compound 1 µM, first compound 0.316 µM
[22] = second compound 1 µM, first compound 1 µM
[23] = second compound 1 µM, first compound 3.16 µM
[24] = second compound 1 µM, first compound 10 µM
[25] = second compound 3.16 µM, first compound 0.0316 µM
[26] = second compound 3.16 µM, first compound 0.1 µM
[27] = second compound 3.16 µM, first compound 0.316 µM
[28] = second compound 3.16 µM, first compound 1 µM
[29] = second compound 3.16 µM, first compound 3.16 µM
[30] = second compound 3.16 µM, first compound 10 µM
[31] = second compound 10 µM, first compound 0.0316 µM
[32] = second compound 10 µM, first compound 0.1 µM
[33] = second compound 10 µM, first compound 0.316 µM
[34] = second compound 10 µM, first compound 1 µM
[35] = second compound 10 µM, first compound 3.16 µM
[36] = second compound 10 µM, first compound 10 µM
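Also: viability read 7 days after compound addition.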

C#Cc1c(F)ccc2cc(O)cc(-c3ncc4c(N5CC6CCC(C5)N6)nc(OCC56CCCN5CC(F)C6)nc4c3F)c12 (stereo not drawn) + CC(Nc1ncnc2nc[nH]c12)c1cc2cccc(Cl)c2c(=O)n1-c1ccccc1
IC50 (second compound 0.0316 µM): 0.631 µM | IC50 (second compound 0.1 µM): 0.573 µM | IC50 (second compound 0.316 µM): 0.664 µM | IC50 (second compound 1 µM): 0.677 µM | IC50 (second compound 3.16 µM): 0.378 µM | IC50 (second compound 10 µM): 0.222 µM | viability, T/C [1]: 96.4% | viability, T/C [2]: 74% | viability, T/C [3]: 57.6% | viability, T/C [4]: 45.7% | viability, T/C [5]: 32.6% | viability, T/C [6]: 22.5% | viability, T/C [7]: 105% | viability, T/C [8]: 78.1% | viability, T/C [9]: 56.6% | viability, T/C [10]: 45.4% | viability, T/C [11]: 29.5% | viability, T/C [12]: 24.5% | viability, T/C [13]: 90.9% | viability, T/C [14]: 72.9% | viability, T/C [15]: 61.4% | viability, T/C [16]: 43.4% | viability, T/C [17]: 33.6% | viability, T/C [18]: 23.2% | viability, T/C [19]: 89.1% | viability, T/C [20]: 78.6% | viability, T/C [21]: 57.9% | viability, T/C [22]: 42.1% | viability, T/C [23]: 37.3% | viability, T/C [24]: 21.2% | viability, T/C [25]: 87.3% | viability, T/C [26]: 70.3% | viability, T/C [27]: 52.1% | viability, T/C [28]: 36.1% | viability, T/C [29]: 28.4% | viability, T/C [30]: 17.6% | viability, T/C [31]: 91.1% | viability, T/C [32]: 63.1% | viability, T/C [33]: 45% | viability, T/C [34]: 27.1% | viability, T/C [35]: 22.7% | viability, T/C [36]: 12%

C=CC(=O)N1CCN(c2nc(=O)n(-c3c(C)ccnc3C(C)C)c3nc(-c4c(O)cccc4F)c(F)cc23)C(C)C1 (stereo not drawn) + CC(Nc1ncnc2nc[nH]c12)c1cc2cccc(Cl)c2c(=O)n1-c1ccccc1
IC50 (second compound 0.0316 µM): > 10 µM | IC50 (second compound 0.1 µM): > 10 µM | IC50 (second compound 0.316 µM): > 10 µM | IC50 (second compound 1 µM): > 10 µM | IC50 (second compound 3.16 µM): > 10 µM | IC50 (second compound 10 µM): > 10 µM | viability, T/C [1]: 97.5% | viability, T/C [2]: 103% | viability, T/C [3]: 96.6% | viability, T/C [4]: 111% | viability, T/C [5]: 107% | viability, T/C [6]: 107% | viability, T/C [7]: 110% | viability, T/C [8]: 113% | viability, T/C [9]: 107% | viability, T/C [10]: 111% | viability, T/C [11]: 117% | viability, T/C [12]: 94.2% | viability, T/C [13]: 112% | viability, T/C [14]: 109% | viability, T/C [15]: 116% | viability, T/C [16]: 107% | viability, T/C [17]: 114% | viability, T/C [18]: 96.5% | viability, T/C [19]: 108% | viability, T/C [20]: 109% | viability, T/C [21]: 99.5% | viability, T/C [22]: 105% | viability, T/C [23]: 111% | viability, T/C [24]: 88.3% | viability, T/C [25]: 104% | viability, T/C [26]: 101% | viability, T/C [27]: 93.5% | viability, T/C [28]: 99.9% | viability, T/C [29]: 107% | viability, T/C [30]: 87% | viability, T/C [31]: 94.9% | viability, T/C [32]: 96.8% | viability, T/C [33]: 107% | viability, T/C [34]: 98.1% | viability, T/C [35]: 106% | viability, T/C [36]: 102%

CC(Cn1ccc(-c2ccc(C#N)c(Cl)c2)n1)NC(=O)c1cc(C(C)O)[nH]n1 (stereo not drawn) + CC(Nc1ncnc2nc[nH]c12)c1cc2cccc(Cl)c2c(=O)n1-c1ccccc1
IC50 (second compound 0.0316 µM): > 10 µM | IC50 (second compound 0.1 µM): > 10 µM | IC50 (second compound 0.316 µM): > 10 µM | IC50 (second compound 1 µM): > 10 µM | IC50 (second compound 3.16 µM): > 10 µM | IC50 (second compound 10 µM): > 10 µM | viability, T/C [1]: 104% | viability, T/C [2]: 110% | viability, T/C [3]: 106% | viability, T/C [4]: 105% | viability, T/C [5]: 116% | viability, T/C [6]: 96.7% | viability, T/C [7]: 114% | viability, T/C [8]: 101% | viability, T/C [9]: 102% | viability, T/C [10]: 108% | viability, T/C [11]: 102% | viability, T/C [12]: 103% | viability, T/C [13]: 111% | viability, T/C [14]: 107% | viability, T/C [15]: 104% | viability, T/C [16]: 107% | viability, T/C [17]: 105% | viability, T/C [18]: 101% | viability, T/C [19]: 113% | viability, T/C [20]: 110% | viability, T/C [21]: 102% | viability, T/C [22]: 118% | viability, T/C [23]: 107% | viability, T/C [24]: 102% | viability, T/C [25]: 103% | viability, T/C [26]: 98.5% | viability, T/C [27]: 87% | viability, T/C [28]: 99.6% | viability, T/C [29]: 101% | viability, T/C [30]: 94.7% | viability, T/C [31]: 88% | viability, T/C [32]: 94.8% | viability, T/C [33]: 99.4% | viability, T/C [34]: 95.8% | viability, T/C [35]: 92.5% | viability, T/C [36]: 87.8%

CC1(C)CCC(Nc2ncc(C(F)(F)F)c(-c3c[nH]c4c(P(C)(C)=O)c(C#N)ccc34)n2)CN1 (stereo not drawn) + CC(Nc1ncnc2nc[nH]c12)c1cc2cccc(Cl)c2c(=O)n1-c1ccccc1
IC50 (second compound 0.0316 µM): > 10 µM | IC50 (second compound 0.1 µM): > 10 µM | IC50 (second compound 0.316 µM): > 10 µM | IC50 (second compound 1 µM): > 10 µM | IC50 (second compound 3.16 µM): > 10 µM | IC50 (second compound 10 µM): > 10 µM | viability, T/C [1]: 107% | viability, T/C [2]: 105% | viability, T/C [3]: 97% | viability, T/C [4]: 88.5% | viability, T/C [5]: 90.8% | viability, T/C [6]: 74.1% | viability, T/C [7]: 114% | viability, T/C [8]: 105% | viability, T/C [9]: 93.6% | viability, T/C [10]: 93.1% | viability, T/C [11]: 91.5% | viability, T/C [12]: 81.6% | viability, T/C [13]: 104% | viability, T/C [14]: 104% | viability, T/C [15]: 103% | viability, T/C [16]: 92.8% | viability, T/C [17]: 95.1% | viability, T/C [18]: 67.4% | viability, T/C [19]: 106% | viability, T/C [20]: 100% | viability, T/C [21]: 94.6% | viability, T/C [22]: 82.7% | viability, T/C [23]: 96.5% | viability, T/C [24]: 69.5% | viability, T/C [25]: 106% | viability, T/C [26]: 100% | viability, T/C [27]: 89.4% | viability, T/C [28]: 87% | viability, T/C [29]: 82.6% | viability, T/C [30]: 69.5% | viability, T/C [31]: 92.2% | viability, T/C [32]: 97% | viability, T/C [33]: 80.1% | viability, T/C [34]: 82.5% | viability, T/C [35]: 83.1% | viability, T/C [36]: 56.2%
